Values after ≈ are worked out from the molar mass of the structure shown.
What was measured:
[1] = test system: Salmonella typhi; experiment: Antibacterial activity against Salmonella typhi by disc diffusion method; assay type: functional, Salmonella enterica subsp. enterica serovar Typhi; conditions: Salmonella enterica
[2] = test system: Escherichia coli; experiment: Antibacterial activity against enterotoxigenic Escherichia coli by disc diffusion method; assay type: functional
[3] = test system: Pseudomonas aeruginosa; experiment: Antibacterial activity against Pseudomonas aeruginosa by disc diffusion method; assay type: functional
[4] = test system: Staphylococcus aureus; experiment: Antibacterial activity against Staphylococcus aureus by disc diffusion method; assay type: functional
[5] = test system: Salmonella typhi; experiment: Ratio of norfloxacin MIC to compound MIC against Salmonella typhi; assay type: functional, Salmonella enterica subsp. enterica serovar Typhi

With `CCn1cc(C(=O)NNS(=O)(=O)c2ccc(C)cc2)c(=O)c2ccccc21` the MIC [1] was 0.0625 µg/mL (≈ 0.162 µM), the MIC [2] was 0.125 µg/mL (≈ 0.324 µM) and the MIC [3] was 0.0625 µg/mL (≈ 0.162 µM). For the same compound, the MIC [4] was 0.0625 µg/mL (≈ 0.162 µM) and the Ratio [5] was 4.

Work on `CCn1cc(C(=O)NNS(=O)(=O)c2ccc(C)cc2)c(=O)c2cc(F)ccc21` yielded an MIC [1] of 0.0625 µg/mL (≈ 0.155 µM), an MIC [2] of 0.0625 µg/mL (≈ 0.155 µM) and an MIC [3] of 0.0625 µg/mL (≈ 0.155 µM). For the same compound, the MIC [4] was 0.0625 µg/mL (≈ 0.155 µM) and the Ratio [5] was 4.

`CCn1cc(C(=O)NNS(=O)(=O)c2ccc(C)cc2)c(=O)c2cc(Cl)ccc21` showed an MIC [1] of 0.0625 µg/mL (≈ 0.149 µM), an MIC [2] of 0.0625 µg/mL (≈ 0.149 µM) and an MIC [3] of 0.0625 µg/mL (≈ 0.149 µM). It also gave an MIC [4] of 0.0625 µg/mL (≈ 0.149 µM) and a Ratio [5] of 4.

`CCn1cc(C(=O)NNS(=O)(=O)c2ccc(C)cc2)c(=O)c2ccc(Cl)cc21` was tested, and the MIC [1] was 0.125 µg/mL (≈ 0.298 µM), the MIC [2] was 0.0625 µg/mL (≈ 0.149 µM) and the MIC [3] was 0.0625 µg/mL (≈ 0.149 µM). It also gave an MIC [4] of 0.0625 µg/mL (≈ 0.149 µM) and a Ratio [5] of 2.

In the case of `CCn1cc(C(=O)NNS(=O)(=O)c2ccc(C)cc2)c(=O)c2cc(F)c(Cl)cc21`, the MIC [1] is reported as 0.0625 µg/mL (≈ 0.143 µM), the MIC [2] is reported as 0.0625 µg/mL (≈ 0.143 µM) and the MIC [3] is reported as 0.0625 µg/mL (≈ 0.143 µM). For the same compound, the MIC [4] was 0.0625 µg/mL (≈ 0.143 µM) and the Ratio [5] was 4.

`CCn1cc(C(=O)NN)c(=O)c2ccccc21` showed an MIC [1] of 0.0625 µg/mL (≈ 0.27 µM), an MIC [2] of 0.0625 µg/mL (≈ 0.27 µM) and an MIC [3] of 0.0625 µg/mL (≈ 0.27 µM). For the same compound, the MIC [4] was 0.0625 µg/mL (≈ 0.27 µM) and the Ratio [5] was 4.

For `CCn1cc(C(=O)NN)c(=O)c2cc(F)ccc21`, the MIC [1] was 0.0625 µg/mL (≈ 0.251 µM), the MIC [2] was 0.125 µg/mL (≈ 0.502 µM) and the MIC [3] was 0.0625 µg/mL (≈ 0.251 µM). The MIC [4] was 0.0625 µg/mL (≈ 0.251 µM) and the Ratio [5] was 4.

With `CCn1cc(C(=O)NN)c(=O)c2cc(Cl)ccc21` the MIC [1] was 0.0625 µg/mL (≈ 0.235 µM), the MIC [2] was 0.25 µg/mL (≈ 0.941 µM) and the MIC [3] was 0.0625 µg/mL (≈ 0.235 µM). It also gave an MIC [4] of 0.0625 µg/mL (≈ 0.235 µM) and a Ratio [5] of 4.

`CCn1cc(C(=O)NN)c(=O)c2ccc(Cl)cc21` was tested, and the MIC [1] was 0.0625 µg/mL (≈ 0.235 µM), the MIC [2] was 0.0625 µg/mL (≈ 0.235 µM) and the MIC [3] was 0.0625 µg/mL (≈ 0.235 µM). For the same compound, the MIC [4] was 0.0625 µg/mL (≈ 0.235 µM) and the Ratio [5] was 4.

For `CCn1cc(C(=O)NN)c(=O)c2cc(F)c(Cl)cc21`, the MIC [1] was 0.0625 µg/mL (≈ 0.22 µM), the MIC [2] was 0.0625 µg/mL (≈ 0.22 µM) and the MIC [3] was 0.0625 µg/mL (≈ 0.22 µM). For the same compound, the MIC [4] was 0.0625 µg/mL (≈ 0.22 µM) and the Ratio [5] was 4.

For `O=C(O)c1cn(C2CC2)c2cc(N3CCNCC3)c(F)cc2c1=O` [CIPROFLOXACIN], the MIC [1] was 0.0625 µg/mL (≈ 0.189 µM), the MIC [2] was 0.0625 µg/mL (≈ 0.189 µM) and the MIC [3] was 0.0625 µg/mL (≈ 0.189 µM). It also gave an MIC [4] of 0.0625 µg/mL (≈ 0.189 µM).

`CCn1cc(C(=O)O)c(=O)c2cc(F)c(N3CCNCC3)cc21` [NORFLOXACIN] gave an MIC [1] of 0.25 µg/mL (≈ 0.783 µM), an MIC [2] of 0.0625 µg/mL (≈ 0.196 µM) and an MIC [3] of 0.0625 µg/mL (≈ 0.196 µM). For the same compound, the MIC [4] was 0.0625 µg/mL (≈ 0.196 µM).

From ChEMBL document CHEMBL2417444, “Synthesis and study of 1-ethyl-3-carbohydrazide and 3-[1-oxo-2-hydrazino-3-{p-toluenesulfon}]quinolone derivatives against bacterial infections” (2013)
